Values joined by “and” are separate entries in the source; they are usually repeats but may differ in a detail not shown here. Equal entries are not always repeated.
Tested on: 843126-344-R-J1-PDC complex spheroid viability
Experiment: Anticancer human tumor 843126-344-R-J1-PDC patient-derived melanoma cell line growth inhibition [POLQ]
Conditions: for viability, T/C: stronger effect = lower value
Procedure: Multicellular complex tumor spheroid response to Polymerase (POL) inhibitors (novobiocin, ART-558, RP6685) in combination with a variety of drugs and investigational agents in selected tumor cell lines
The POL inhibitors (novobiocin, ART-558, and RP6685) were evaluated both individually and in combination with standard of care and investigational anticancer small molecules within a complex spheroid model of solid tumors. . Complex spheroids include a stromal component modeled by human endothelial cells (HUVEC) and fibroblasts modeled by human mesenchymal stem cells (MSCs). The concentration ranges selected for each drug and investigational agent were based upon clinically achievable concentrations if the clinical Cmax of the agent was known.
Compounds. The drugs and investigational agents: novobiocin (NSC847541), ART-558 (NSC835418), RP-6685 (NSC848927), peposertib (NSC802822), ceralasertib (NSC780249), elimusertib (NSC800525), camonsertib (NSC841442), AZD-1390 (NSC803789), olaparib (NSC753686), talazoparib (NSC767125), rucaparib (NSC756644), sotorasib (NSC818433), MRTX-1133 (NSC836407), SN-38 (NSC673596), topotecan (NSC609699), epotoside (NSC141540), doxorubicin (NSC123127), gemcitabine (NSC613327), 5-fluorouracil (NSC19893), paclitaxel (NSC125973), vemurafenib (NSC761431), MSA-2 (NSC828583), SN-011 (NSC837082), adavosertib (NSC754352), prexasertib (NSC758257), carboplatin (NSC241240) and oxaliplatin (NSC266046), were obtained from the National Cancer Institute (NCI) Developmental Therapeutics Program Chemical Repository (21). The FDA-approved anticancer drug set is available from the Developmental Therapeutics Program at https://dtp.cancer.gov/organization/dscb/obtaining/. […] The stock solutions were prepared in dimethyl sulfoxide (DMSO, Sigma-Aldrich, St. Louis, MO, cat. D2650), except for the platinum compounds which were prepared in saline (Quality Biological, Gaithersburg, MD, cat. 114-055-101), at 800-fold the tested concentration and stored at -70 degrees C prior to their use. All drugs and investigational agents were tested over a range starting from a high concentration at or near the clinical Cmax and decreasing in half-log increments. If the clinical Cmax for an agent had not been determined, the highest concentration tested was 10 microM, except for SN-38, which was tested at a high concentration of 1 microM.
Cell Culture. All cells were maintained in an incubator at 37 degrees C and 5% CO2 with 95% humidity. The PDC lines were cultured according to standard operating procedures established by the NCI PDMR (https://pdmr.cancer.gov). Table 3 of the manuscript, lists the cell lines along with the number of the three cell types plated to form the mct-spheroids and media for tumor cell growth. After thawing, all PDC lines, except 997537-175-T-J1-PDC and 415267-285-R-J2-PDC, were cultured in Matrigel-coated flasks prepared with a working solution of 1X Ham's F-12 nutrient mix, without supplementation (Thermo Fisher Scientific, cat. 11765054), 100 U/mL penicillin-streptomycin (Thermo Fisher Scientific, cat. 15140122), and 2.5% Matrigel (Corning Inc., Corning, NY, cat. 354248) for the first three passages. The two PDC lines 997537-175-T-J1-PDC and 415267-285-R-J2-PDC were cultured on uncoated flasks. The 857933-349-R-J2-PDC line was cultured in 6C/Colon 1B media containing advanced DMEM/F-12 (Thermo Fisher Scientific, cat. 12634028), 10 mM HEPES (Thermo Fisher Scientific, cat. 15630080), 1X GlutaMAX supplement (Thermo Fisher Scientific, cat. 35050061), 0.1 mg/mL primocin (InvivoGen, San Diego, CA, cat. ant-pm-2), 10% defined fetal bovine serum, heat inactivated (HyClone Laboratories Inc., Logan, UT, cat. SH30070.03HI), 50% L-WRN conditioned media (ATCC, cat. CRL-3276), 1.25 mM N-Acetyl-L-cysteine (Sigma-Aldrich, cat. A9165), 10 mM nicotinamide (Sigma-Aldrich, cat. N0636), 1X B-27 supplement (Thermo Fisher Scientific, cat. 17504044), 1X N-2 supplement (Thermo Fisher Scientific, cat. […]

[1] = compound alone, run of 01/08/2024
[2] = compound alone, run of 01/19/2024
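Wherever viability, T/C is given: spheroids exposed to drugs for seven days before readout.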

## CNCc1ccc(-c2[nH]c3cc(F)cc4c3c2CCNC4=O)cc1
Compound 0.0316 µM
  viability, T/C: 99.4% and 100% and 94.8%
Compound 0.1 µM
  viability, T/C: 77.4% and 81.4% and 75.4%
Compound 0.316 µM
  viability, T/C: 87.7% and 100% and 97.9%
Compound 1 µM
  viability, T/C: 76% and 91.1% and 107%
Compound 3.16 µM
  viability, T/C: 76% and 108% and 89%
Compound 10 µM
  viability, T/C: 73.8% and 87% and 79.3%
Curve of compound
  IC50: > 10 µM

## COC1C(OC(N)=O)C(O)C(Oc2ccc3c(O)c(NC(=O)c4ccc(O)c(CC=C(C)C)c4)c(=O)oc3c2C)OC1(C)C (stereo unspecified)
Compound 1 µM
  viability, T/C: 92% [middle of 13 runs]
[1]
  IC50: > 10 µM

## COc1cc(C2c3cc4c(cc3C(OC3OC5COC(C)OC5C(O)C3O)C3COC(=O)C23)OCO4)cc(OC)c1O (stereo unspecified)
Compound 0.0316 µM
  viability, T/C: 82.2% and 114% and 91.2%
Compound 0.1 µM
  viability, T/C: 95.3% and 90.7% and 102%
Compound 0.316 µM
  viability, T/C: 90% and 97.6% and 83.3%
Compound 1 µM
  viability, T/C: 90.9% and 79% and 81.2%
Compound 3.16 µM
  viability, T/C: 58.2% and 68.9% and 66.3%
Compound 10 µM
  viability, T/C: 50% and 52.2% and 41.9%
Curve of compound
  IC50: > 10 µM and 6.8 µM

## COc1cc2cc(C(=O)CCC(=O)O)sc2cc1OC
Compound 0.0316 µM
  viability, T/C: 87.3% and 78.3% and 95.9%
Compound 0.1 µM
  viability, T/C: 84.1% and 94.8% and 93.8%
Compound 0.316 µM
  viability, T/C: 94.1% and 97.4% and 110%
Compound 1 µM
  viability, T/C: 89.5% and 93.5% and 88.7%
Compound 3.16 µM
  viability, T/C: 86.9% and 84.8% and 98.1%
Compound 10 µM
  viability, T/C: 112% and 90.1% and 96.6%
Curve of compound
  IC50: > 10 µM

## COc1ccc([C@@H](O)c2cc(-c3ncnc4cc(N5CCOCC5)ccc34)c(F)cc2Cl)nn1
Compound 0.0316 µM
  viability, T/C: 103% and 80.6% and 95.7%
Compound 0.1 µM
  viability, T/C: 84.7% and 89.8% and 74.2%
Compound 0.316 µM
  viability, T/C: 92.1% and 102% and 93.4%
Compound 1 µM
  viability, T/C: 112% and 87.3% and 81.3%
Compound 3.16 µM
  viability, T/C: 86.4% and 73.3% and 59.9%
Compound 10 µM
  viability, T/C: 66.4% and 71.2% and 48.2%
Curve of compound
  IC50: > 10 µM and 8.43 µM

## COc1cccc(OCCCN)c1-c1cc(Nc2cnc(C#N)cn2)n[nH]1
Compound 0.00316 µM
  viability, T/C: 97.4% and 92.9% and 79.1%
Compound 0.01 µM
  viability, T/C: 79.3% and 86.4% and 75.8%
Compound 0.0316 µM
  viability, T/C: 59% and 60.4% and 62.1%
Compound 0.1 µM
  viability, T/C: 49.5% and 47.9% and 49.9%
Compound 0.316 µM
  viability, T/C: 47.6% and 47.8% and 44.3%
Compound 1 µM
  viability, T/C: 35.3% and 32.9% and 35.2%
Curve of compound
  IC50: 0.109 µM and 0.0864 µM and 0.114 µM

## COc1cccc2c1C(=O)c1c(O)c3c(c(O)c1C2=O)CC(O)(C(=O)CO)CC3OC1CC(N)C(O)C(C)O1 (stereo unspecified)
Compound 0.0316 µM
  viability, T/C: 82.8% and 77.3% and 86.3%
Compound 0.1 µM
  viability, T/C: 70.2% and 71% and 79.7%
Compound 0.316 µM
  viability, T/C: 44.3% and 47.8% and 56.8%
Compound 1 µM
  viability, T/C: 12.3% and 15.1% and 18.4%
Compound 3.16 µM
  viability, T/C: 4.78% and 2.95% and 3.66%
Compound 10 µM
  viability, T/C: 3.94% and 2.18% and 3.96%
Curve of compound
  IC50: 0.237 µM and 0.282 µM and 0.385 µM

## Cc1cccc(N(C)C(=O)C2C(O)CCN2c2nc(C)cc(C(F)(F)F)c2C#N)c1 (stereo unspecified)
Compound 0.316 µM
  viability, T/C: 100% [middle of 12 runs]
Compound 1 µM
  viability, T/C: 97.7% [middle of 12 runs]
Compound 10 µM
  viability, T/C: 95.7% [middle of 12 runs]
[1]
  IC50: > 10 µM
[2]
  IC50: > 10 µM

## Cn1ncnc1[C@H]1c2n[nH]c(=O)c3cc(F)cc(c23)N[C@@H]1c1ccc(F)cc1
Compound 0.000316 µM
  viability, T/C: 85.9% and 104% and 97.7%
Compound 0.001 µM
  viability, T/C: 103% and 90.3% and 99.6%
Compound 0.00316 µM
  viability, T/C: 103% and 95% and 84.3%
Compound 0.01 µM
  viability, T/C: 86.2% and 97.3% and 92.6%
Compound 0.0316 µM
  viability, T/C: 86.9% and 122% and 88.4%
Compound 0.1 µM
  viability, T/C: 84.2% and 90.4% and 88%
Curve of compound
  IC50: > 0.1 µM

## Nc1ccc(C#CCN(C(=O)Cc2ncc(C(F)(F)F)cc2C(F)(F)F)c2ccc(F)cc2)nn1
Compound 0.0316 µM
  viability, T/C: 98.2% [middle of 13 runs]
Compound 0.1 µM
  viability, T/C: 95.1% [middle of 13 runs]
Compound 0.316 µM
  viability, T/C: 97.8% [middle of 13 runs]
Compound 1 µM
  viability, T/C: 92.4% [middle of 12 runs]
Compound 3.16 µM
  viability, T/C: 90.4% [middle of 13 runs]
Compound 10 µM
  viability, T/C: 87.2% [middle of 13 runs]
[2]
  IC50: > 10 µM

## Nc1ccn(C2OC(CO)C(O)C2(F)F)c(=O)n1 (stereo unspecified)
Compound 0.0316 µM
  viability, T/C: 46.2% and 42.9% and 42.2%
Compound 0.1 µM
  viability, T/C: 38.7% and 36.8% (2×)
Compound 0.316 µM
  viability, T/C: 47.1% and 45.8% and 33.8%
Compound 1 µM
  viability, T/C: 43% and 35% and 37.6%
Compound 3.16 µM
  viability, T/C: 41.3% and 39.6% and 33.5%
Compound 10 µM
  viability, T/C: 38.2% and 37.7% and 35.1%
Curve of compound
  IC50: < 0.0316 µM

## O=C(Nc1ccc(O)c(NS(=O)(=O)c2ccc(F)cc2)c1)c1ccc(-c2ccccc2)cc1
Compound 0.0316 µM
  viability, T/C: 105% and 76% and 99.6%
Compound 0.1 µM
  viability, T/C: 95.6% and 92.3% and 104%
Compound 0.316 µM
  viability, T/C: 105% and 88.3% and 87.2%
Compound 1 µM
  viability, T/C: 99.5% and 85.9% and 100%
Compound 3.16 µM
  viability, T/C: 87.3% and 85.3% and 95.2%
Compound 10 µM
  viability, T/C: 74.3% (2×) and 75.3%
Curve of compound
  IC50: > 10 µM

## O=C(c1cc(Cc2n[nH]c(=O)c3ccccc23)ccc1F)N1CCN(C(=O)C2CC2)CC1
Compound 0.0316 µM
  viability, T/C: 91.6% and 93.9% and 74.9%
Compound 0.1 µM
  viability, T/C: 78.7% and 90% and 91.5%
Compound 0.316 µM
  viability, T/C: 103% and 77.3% and 93.6%
Compound 1 µM
  viability, T/C: 74.1% and 76.7% and 83%
Compound 3.16 µM
  viability, T/C: 86.2% and 79.5% and 87.6%
Compound 10 µM
  viability, T/C: 81% and 72.1% and 82.1%
Curve of compound
  IC50: > 10 µM

## O=c1[nH]cc(F)c(=O)[nH]1
Compound 0.0316 µM
  viability, T/C: 119% and 102% and 97%
Compound 0.1 µM
  viability, T/C: 107% and 84.6% and 86.3%
Compound 0.316 µM
  viability, T/C: 104% and 89.5% and 75.2%
Compound 1 µM
  viability, T/C: 102% and 96.6% and 104%
Compound 3.16 µM
  viability, T/C: 106% and 98.3% and 96.6%
Compound 10 µM
  viability, T/C: 79.5% and 96.8% and 76.3%
Curve of compound
  IC50: > 10 µM
